Measured values from patent US5427766A, “Radiolabeled steroids for use in radiochemical-guided surgery” (priority 1993, dated 1995).

Assays:
Design in all cases: species or system athymic female NCR-Nu Mice
[1] = system: MCF-7(ER+) breast tumor xenografts; assay: In vivo biolocalization with gamma detecting probe, tumor/background ratio, MCF-7 (ER+) tumor; conditions: for Tumor/Background Ratio (Tu/Bkg): MCF-7 tumor, foreleg background, n = 5
Description: (§1) In vivo biolocalization of 11β-ethyl-17α-(Z)-[^125 I](iodovinyl)estra-3,17β-diol (5) and a control compound 16α-[^125 I](iodovinyl)-3,17β-estradiol was determined in athymic female NCR-Nu Mice bearing subcutaneous MCF-7(ER+) breast tumor xenografts and MDA-MB-231 (ER-) breast tumor xenografts. The mice were at least 5 weeks old prior to injection into the right-hand flank with […] of MCF-7 breast carcinoma cells ([…]). One day prior to this procedure, the mice were implanted subcutaneously with a 1.7 mg estradiol pellet in the scapular region. Four to six weeks post-injection of the MCF-7 cells the estradiol pellet was removed and the mice inoculated in the left hind flank with 75 μL NDA-MB-231 breast tumor cells ([…]). Seven to ten days prior to injection of the test compounds, an estradiol pellet was again implanted in the scapular region. One to two days prior to injection of the test compounds, the estradiol pellet was removed, and 5 mice arbitrarily assigned to each test group.
(§2) The mice were each injected via tail vein with between 3 ([…]) and […] ([…]) 125 iodine in approximately […] of phosphate-buffered saline. At various time intervals after injection of the test compounds, each group of mice was anesthetized with methoxyflurane in order to measure the radioactivity over the ER+ and ER- tumors and the front leg for use as a background and the thoraxic area which served as a blood pool control using a gamma detecting probe (RIGS ^TM Model 1001 control unit, Neoprobe Corporation, Columbus, Ohio). Three 20 to 60 second counts were recorded at each area measured at each time point.
(§3) ^c Tu/Bkg = Mean(1-5) of (mean tumor countsn - mean foreleg
(§4) background countsn)/mean foreleg background

[2] = system: MDA-MB-231 (ER-) breast tumor xenografts; assay: In vivo biolocalization with gamma detecting probe, tumor/background ratio, MDA-MB-231 (ER-) tumor; conditions: MDA-MB-231 tumor, foreleg background, n = 5
Description: as §1, §2, §3, §4

[3] = system: MCF-7 tumors located intraperitoneally; assay: In vivo localization (biodistribution) in athymic female nude mice bearing intraperitoneal MCF-7 tumors; conditions: for Percent Injected Dose/Gram, blood / Percent Injected Dose/Gram, fat / Percent Injected Dose/Gram, kidney / Percent Injected Dose/Gram, liver / Percent Injected Dose/Gram, muscle / Percent Injected Dose/Gram, spleen / Percent Injected Dose/Gram, tumor / Percent Injected Dose/Gram, uteri: tail vein, intraperitoneal MCF-7, mean, n = 5
Description: (§5) In vivo localization of 11β-ethyl-17α-(Z)-[^125 I](iodovinyl)estra-3,17β-diol (5) and a control compound 16α-[^125 I]iodovinyl-3,17β-estradiol (commercially available from DuPont New England Nuclear, MA) was determined in athymic female NCR-Nu Mice (purchased from Simonsen Laboratories, Gilroy, Calif.) bearing subcutaneous MCF-7(ER+) breast tumor xenografts. Prior to injection of the compounds, the mice were each implanted with fragments of MCF-7 breast tumor (approximately 2 cubic millimeters) in the subcutis of the left flank. At approximately the same time, a 1.7 mg estradiol pellet (Innovative Research of America, Toledo, Ohio) was implanted in the scapular region. The tumors were allowed to grow until they reached between 50 and 200 mg by visual inspection (approximately four to five weeks) prior to injection of the test compounds. One day prior to injection of the test compounds, the estradiol pellet was removed.
(§6) The mice were each injected via tail vein with between 3 (1.1×10^5 Bq) and 6 μCi ([…]) ^125 I in approximately 50 μL of phosphate buffered saline. The mice were sacrificed at various time intervals. After exsanguination, the selected organ/tissue were excised, weighed and radioactivity measured in a gamma counter. The counts per minute (cpm) of 125I in each tissue was determined and expressed as cpm per gram of tissue per injected dose multiplied by 100 (percent injected dose/gram).
The procedure of Example 3 was followed except each mouse was inoculated intraperitoneally with MCF-7 breast carcinoma cell line (7.5×10^6 cell/50 μL) rather than implanted subcutaneously with MCF-7 breast tumor. One day prior to this procedure, a 1.7 mg estradiol pellet was implanted subcutaneously in the scapular region. The tumor cells were allowed to form solid tumor nodules for 4 to 6 weeks prior to injection of the test compounds.

[4] = system: MCF-7(ER+) breast tumor xenografts; assay: In vivo localization (biodistribution) in athymic female nude mice bearing subcutaneous MCF-7 tumor xenografts; conditions: for Percent Injected Dose/Gram, blood / Percent Injected Dose/Gram, fat / Percent Injected Dose/Gram, kidney / Percent Injected Dose/Gram, liver / Percent Injected Dose/Gram, muscle / Percent Injected Dose/Gram, spleen / Percent Injected Dose/Gram, tumor / Percent Injected Dose/Gram, uteri: tail vein, subcutaneous MCF-7, mean, n = 5
Description: as §5, §6

`C[C@]12CC[C@@H]3c4ccc(O)cc4CC[C@H]3[C@@H]1C[C@@H]([125I])[C@@H]2O` [16α-Iodo-[^125 I]-3,17β-Estradiol] was tested, and the “Tumor/Background Ratio (Tu/Bkg)” value ([1]; 10-12 hours) was 4.46 ± 1.44, the “Tumor/Background Ratio (Tu/Bkg)” value ([1]; 2 hours) was 12.73 and the “Tumor/Background Ratio (Tu/Bkg)” value ([1]; 6 hours) was 9.58 ± 4.69. For the same compound, the “Tumor/Background Ratio (Tu/Bkg)” value ([1]; 24 hours) was 1.13 ± 0.16, the “Tumor/Background Ratio (Tu/Bkg)” value ([1]; 48 hours) was 0.13 ± 0.08 and the “tumor to background ratios / localization at the tumor site (in words)” value ([1]; after 10 to 12 hours) was “not being maintained or localized at the tumor site”. For the same compound, the “tumor to background ratios (in words)” value ([1]; at 10 to 12 hours) was “good tumor to background ratios”, the “Tumor/Background Ratio (Tu/Bkg)” value ([2]; 10-12 hours) was 2.51 ± 1.40 and the “Tumor/Background Ratio (Tu/Bkg)” value ([2]; 2 hours) was 10.96. The “Tumor/Background Ratio (Tu/Bkg)” value ([2]; 6 hours) was 6.23 ± 3.02, the “Tumor/Background Ratio (Tu/Bkg)” value ([2]; 24 hours) was 0.85 ± 0.29 and the “Tumor/Background Ratio (Tu/Bkg)” value ([2]; 48 hours) was 0.08 ± 0.19. For the same compound, the “radioactivity in the uteri and tumors” value ([3]; 48 hours post-injection, uteri and tumors, intraperitoneal MCF-7) was “no radioactivity defected”, the “Percent Injected Dose/Gram, blood” value ([3]; 10-12 hours) was 0.50 Percent Injected Dose/Gram and the “Percent Injected Dose/Gram, blood” value ([3]; 2 hours) was 0.84 Percent Injected Dose/Gram. The “Percent Injected Dose/Gram, blood” value ([3]; 6 hours) was 0.74 Percent Injected Dose/Gram, the “Percent Injected Dose/Gram, blood” value ([3]; 24 hours) was 0.06 Percent Injected Dose/Gram and the “Percent Injected Dose/Gram, blood” value ([3]; 48 hours) was 0.03 Percent Injected Dose/Gram. The “Percent Injected Dose/Gram, fat” value ([3]; 10-12 hours) was 0.01 Percent Injected Dose/Gram, the “Percent Injected Dose/Gram, fat” value ([3]; 2 hours) was 0.92 Percent Injected Dose/Gram and the “Percent Injected Dose/Gram, fat” value ([3]; 6 hours) was 0.14 Percent Injected Dose/Gram. For the same compound, the “Percent Injected Dose/Gram, fat” value ([3]; 24 hours) was 0.00 Percent Injected Dose/Gram, the “Percent Injected Dose/Gram, fat” value ([3]; 48 hours) was 0.00 Percent Injected Dose/Gram and the “Percent Injected Dose/Gram, kidney” value ([3]; 10-12 hours) was 0.24 Percent Injected Dose/Gram. The “Percent Injected Dose/Gram, kidney” value ([3]; 2 hours) was 0.83 Percent Injected Dose/Gram, the “Percent Injected Dose/Gram, kidney” value ([3]; 6 hours) was 0.41 Percent Injected Dose/Gram and the “Percent Injected Dose/Gram, kidney” value ([3]; 24 hours) was 0.03 Percent Injected Dose/Gram. For the same compound, the “Percent Injected Dose/Gram, kidney” value ([3]; 48 hours) was 0.00 Percent Injected Dose/Gram, the “Percent Injected Dose/Gram, liver” value ([3]; 10-12 hours) was 0.84 Percent Injected Dose/Gram and the “Percent Injected Dose/Gram, liver” value ([3]; 2 hours) was 6.54 Percent Injected Dose/Gram. The “Percent Injected Dose/Gram, liver” value ([3]; 6 hours) was 5.37 Percent Injected Dose/Gram, the “Percent Injected Dose/Gram, liver” value ([3]; 24 hours) was 0.15 Percent Injected Dose/Gram and the “Percent Injected Dose/Gram, liver” value ([3]; 48 hours) was 0.08 Percent Injected Dose/Gram. For the same compound, the “Percent Injected Dose/Gram, muscle” value ([3]; 10-12 hours) was 0.00 Percent Injected Dose/Gram, the “Percent Injected Dose/Gram, muscle” value ([3]; 2 hours) was 0.12 Percent Injected Dose/Gram and the “Percent Injected Dose/Gram, muscle” value ([3]; 6 hours) was 0.07 Percent Injected Dose/Gram. For the same compound, the “Percent Injected Dose/Gram, muscle” value ([3]; 24 hours) was 0.00 Percent Injected Dose/Gram, the “Percent Injected Dose/Gram, muscle” value ([3]; 48 hours) was 0.00 Percent Injected Dose/Gram and the “Percent Injected Dose/Gram, spleen” value ([3]; 10-12 hours) was 0.15 Percent Injected Dose/Gram. For the same compound, the “Percent Injected Dose/Gram, spleen” value ([3]; 2 hours) was 0.34 Percent Injected Dose/Gram, the “Percent Injected Dose/Gram, spleen” value ([3]; 6 hours) was 0.36 Percent Injected Dose/Gram and the “Percent Injected Dose/Gram, spleen” value ([3]; 24 hours) was 0.01 Percent Injected Dose/Gram. For the same compound, the “Percent Injected Dose/Gram, spleen” value ([3]; 48 hours) was 0.00 Percent Injected Dose/Gram, the “Percent Injected Dose/Gram, tumor” value ([3]; 10-12 hours) was 0.40 Percent Injected Dose/Gram and the “Percent Injected Dose/Gram, tumor” value ([3]; 2 hours) was 1.35 Percent Injected Dose/Gram. The “Percent Injected Dose/Gram, tumor” value ([3]; 6 hours) was 0.75 Percent Injected Dose/Gram, the “Percent Injected Dose/Gram, tumor” value ([3]; 24 hours) was 0.02 Percent Injected Dose/Gram and the “Percent Injected Dose/Gram, tumor” value ([3]; 48 hours) was 0.00 Percent Injected Dose/Gram. For the same compound, the “Percent Injected Dose/Gram, uteri” value ([3]; 10-12 hours) was 0.45 Percent Injected Dose/Gram, the “Percent Injected Dose/Gram, uteri” value ([3]; 2 hours) was 2.89 Percent Injected Dose/Gram and the “Percent Injected Dose/Gram, uteri” value ([3]; 6 hours) was 1.09 Percent Injected Dose/Gram. The “Percent Injected Dose/Gram, uteri” value ([3]; 24 hours) was 0.02 Percent Injected Dose/Gram, the “Percent Injected Dose/Gram, uteri” value ([3]; 48 hours) was 0.00 Percent Injected Dose/Gram and the “radioactivity in the uteri and tumors” value ([4]; 48 hours post-injection, uteri and tumors, subcutaneous MCF-7) was “no radioactivity defected”. The “Percent Injected Dose/Gram, blood” value ([4]; 10-12 hours) was 0.16 Percent Injected Dose/Gram, the “Percent Injected Dose/Gram, blood” value ([4]; 2 hours) was 0.59 Percent Injected Dose/Gram and the “Percent Injected Dose/Gram, blood” value ([4]; 6 hours) was 0.58 Percent Injected Dose/Gram. For the same compound, the “Percent Injected Dose/Gram, blood” value ([4]; 24 hours) was 0.03 Percent Injected Dose/Gram, the “Percent Injected Dose/Gram, blood” value ([4]; 48 hours) was 0.01 Percent Injected Dose/Gram and the “Percent Injected Dose/Gram, fat” value ([4]; 10-12 hours) was 0.00 Percent Injected Dose/Gram. The “Percent Injected Dose/Gram, fat” value ([4]; 2 hours) was 0.88 Percent Injected Dose/Gram, the “Percent Injected Dose/Gram, fat” value ([4]; 6 hours) was 0.25 Percent Injected Dose/Gram and the “Percent Injected Dose/Gram, fat” value ([4]; 24 hours) was 0.00 Percent Injected Dose/Gram. For the same compound, the “Percent Injected Dose/Gram, fat” value ([4]; 48 hours) was 0.00 Percent Injected Dose/Gram, the “Percent Injected Dose/Gram, kidney” value ([4]; 10-12 hours) was 0.10 Percent Injected Dose/Gram and the “Percent Injected Dose/Gram, kidney” value ([4]; 2 hours) was 0.64 Percent Injected Dose/Gram. The “Percent Injected Dose/Gram, kidney” value ([4]; 6 hours) was 0.37 Percent Injected Dose/Gram, the “Percent Injected Dose/Gram, kidney” value ([4]; 24 hours) was 0.00 Percent Injected Dose/Gram and the “Percent Injected Dose/Gram, kidney” value ([4]; 48 hours) was 0.00 Percent Injected Dose/Gram. The “Percent Injected Dose/Gram, liver” value ([4]; 10-12 hours) was 0.55 Percent Injected Dose/Gram, the “Percent Injected Dose/Gram, liver” value ([4]; 2 hours) was 3.33 Percent Injected Dose/Gram and the “Percent Injected Dose/Gram, liver” value ([4]; 6 hours) was 1.93 Percent Injected Dose/Gram. The “Percent Injected Dose/Gram, liver” value ([4]; 24 hours) was 0.09 Percent Injected Dose/Gram, the “Percent Injected Dose/Gram, liver” value ([4]; 48 hours) was 0.06 Percent Injected Dose/Gram and the “Percent Injected Dose/Gram, muscle” value ([4]; 10-12 hours) was 0.00 Percent Injected Dose/Gram. For the same compound, the “Percent Injected Dose/Gram, muscle” value ([4]; 2 hours) was 0.07 Percent Injected Dose/Gram, the “Percent Injected Dose/Gram, muscle” value ([4]; 6 hours) was 0.05 Percent Injected Dose/Gram and the “Percent Injected Dose/Gram, muscle” value ([4]; 24 hours) was 0.00 Percent Injected Dose/Gram. For the same compound, the “Percent Injected Dose/Gram, muscle” value ([4]; 48 hours) was 0.00 Percent Injected Dose/Gram, the “Percent Injected Dose/Gram, spleen” value ([4]; 10-12 hours) was 0.05 Percent Injected Dose/Gram and the “Percent Injected Dose/Gram, spleen” value ([4]; 2 hours) was 0.28 Percent Injected Dose/Gram. The “Percent Injected Dose/Gram, spleen” value ([4]; 6 hours) was 0.25 Percent Injected Dose/Gram, the “Percent Injected Dose/Gram, spleen” value ([4]; 24 hours) was 0.00 Percent Injected Dose/Gram and the “Percent Injected Dose/Gram, spleen” value ([4]; 48 hours) was 0.00 Percent Injected Dose/Gram. The “Percent Injected Dose/Gram, tumor” value ([4]; 10-12 hours) was 0.09 Percent Injected Dose/Gram, the “Percent Injected Dose/Gram, tumor” value ([4]; 2 hours) was 0.91 Percent Injected Dose/Gram and the “Percent Injected Dose/Gram, tumor” value ([4]; 6 hours) was 0.41 Percent Injected Dose/Gram. For the same compound, the “Percent Injected Dose/Gram, tumor” value ([4]; 24 hours) was 0.00 Percent Injected Dose/Gram, the “Percent Injected Dose/Gram, tumor” value ([4]; 48 hours) was 0.00 Percent Injected Dose/Gram and the “Percent Injected Dose/Gram, uteri” value ([4]; 10-12 hours) was 0.38 Percent Injected Dose/Gram. For the same compound, the “Percent Injected Dose/Gram, uteri” value ([4]; 2 hours) was 2.81 Percent Injected Dose/Gram, the “Percent Injected Dose/Gram, uteri” value ([4]; 6 hours) was 1.02 Percent Injected Dose/Gram and the “Percent Injected Dose/Gram, uteri” value ([4]; 24 hours) was 0.02 Percent Injected Dose/Gram. The “Percent Injected Dose/Gram, uteri” value ([4]; 48 hours) was 0.00 Percent Injected Dose/Gram.
